{"source": "patent US10456509B2", "about": "“Chlorhexidine gluconate compositions, resin systems and articles” (3M INNOVATIVE PROPERTIES COMPANY, priority 2012, dated 2019)", "key": {"[1]": {"assay": "Solubility of lyophilized CHG in vehicles, Lyophilization Method", "conditions": "0.2 wt. % lyophilized CHG", "experimental": "The Lyophilization Method. Lyophilized CHG was prepared by freeze-drying the aqueous CHG solution (20 wt. % solution in water, obtained from Xttrium Laboratories Inc., Chicago, Ill.).\nFor lower viscosity vehicles, a 5 ml sample of the non-aqueous vehicle of interest was measured into a glass vial. For higher viscosity vehicles that were difficult to transfer by volume, a 5 gm sample was weighed into the vial. Next, 0.01 g of lyophilized CHG was added to the vial. The sample was capped and mixed by shaking for 30 seconds. The sample was immediately observed and then observed again after 2 minutes and again after 24 hours. After 24 hours, the sample was placed in a 50° C. oven for 2 hours and then removed and immediately observed. These samples were allowed to cool to room temperature and a final observation was made.\nCHG solutions. The solutions containing CHG were either a 20 wt. % aqueous solution of CHG or a 10-20% w/w solution of CHG in a non-aqueous vehicle. The non-aqueous solutions were prepared by freeze drying the aqueous CHG solution to produce lyophilized CHG. Finely divided, lyophilized CHG was then solubilized in a non-aqueous vehicle at room temperature with continuous stirring for eight hours."}, "[2]": {"assay": "Solubility Screening of CHG in vehicles, Vacuum Method", "experimental": "Solubility Screening. Screening tests were conducted to determine the solubility of CHG in a wide variety of vehicles. Tests were conducted using the Vacuum Method and the Lyophilizing Method.\nVacuum Method. […] The flask was put in a 60° C. oil bath and stirred with a magnetic stir bar. […] In those cases, after nearly all the water was removed, additional vehicle was added to bring the final weight to 50 grams. The resulting concentration of CHG and residual water were determined. Also, the final state of the solution was qualitatively evaluated to determine if the mixture was transparent and apparently homogenous, or clearly inhomogeneous."}}}
{"substance": "Isolaureth-10", "values": [{"measurement": "Apparent solubility 2 minutes", "setting": "[1]; after 2 minutes", "value": "no"}, {"measurement": "Apparent solubility 2 hours 50° C.", "setting": "[1]; after 2 hours in 50° C. oven", "value": "soluble"}, {"measurement": "Apparent solubility >24 hours", "setting": "[1]; after 24 hours", "value": "partial"}, {"measurement": "Apparent solubility after cooling", "setting": "[1]; after cooling to room temperature", "value": "soluble"}, {"measurement": "Apparent solubility immediate", "setting": "[1]; observed immediately after mixing", "value": "no"}, {"measurement": "Final State", "setting": "[2]", "value": "Inhomogeneous"}]}
